Reference: patent US5053006A, “Method for the permanent occlusion of arteries” (priority 1990, dated 1991)

Key:
[1] = compared with rose bengal; cited from earlier work
[2] = Absorption / excitation of the dye in tissue; assay type: physicochemical; conditions: endothelial tissue
Source text: Examples of lasers that can be used to provide the light beam include the He-Ne laser, the argon ion laser and the argon-pumped dye laser. The 543.5 nm He-Ne laser, for example, can excite rose bengal with an efficiency of 58% of the maximum. (The wavelength at which excitation efficiency for rose bengal is maximal in tissue occurs at 562 nm.) Because the maximum theoretical power output is only 4 or 5 milliwatts, the 543.5 nm He-Ne laser is not used in clinical applications at this time. However, this laser is expected to be particularly useful in permanently occluding relatively low-flow arteries, smaller than about 200 μm, such as those in the choroid of the eye.
The argon ion laser is the most common clinical laser used at this time. Although the commonly used argon 514.5 nm line is only 36% efficient with respect to the maximum of rose bengal absorption, this laser is much more powerful (by at least a factor of 1000) and versatile than the He-Ne laser.
The absorption maximum of erythrosin B in endothelial tissue is at 536 nm, which is closer than that of rose bengal to the standard 514.5 nm wavelength of the argon ion laser.

middle cerebral artery = experiment: Erythrosin B photothrombotic occlusion of middle cerebral artery; assay type: in vivo, rat
[3] = in vivo; cited from earlier work

| Molecule | quantum efficiency for singlet oxygen production [1] | absorption maximum in endothelial tissue [2] | photothrombotic efficiency in vivo (middle cerebral artery; 514.5 nm argon line, vs rose bengal) | photothrombotic occlusion of rat MCA (middle cerebral artery; i.v., argon ion laser, 680 μM blood concentration) | half life [3] |
| --- | --- | --- | --- | --- | --- |
| O.O=C([O-])c1ccccc1-c1c2cc(I)c(=O)c(I)c-2oc2c(I)c([O-])c(I)cc12.[Na+].[Na+] [erythrosin B] | slightly less | 536 nm | comparable photothrombotic efficiency | photothrombotically occlude the rat middle cerebral artery in the same fashion as rose bengal |  |
| dihematoporphyrin ether [dihematoporphyrin ether derivative] |  |  |  |  | so long |
